Results reported in the supplement of paper PMC10307832.

Assays:
Test in all cases: relative viability (nuclei count vs DMSO), 5 days (fraction); higher = more cells survive
[1] = compound: CCOC(=O)CCNc1cc(N2CCc3ccccc3CC2)nc(-c2ccccn2)n1 [GSK-J4] + N=C(N)NC(=N)NCCc1ccccc1 [Phenformin] (partner 250 µM)
Procedure, shortened: (§1)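 Values are medians from duplicate plates. Each reflects relative viability, defined as the nuclei count of treated wells over that of vehicle wells. Lung cancer cell lines in 1536-well plates were pin-tool dosed one day after seeding with one drug alone or with a fixed anchor-drug dose plus five library-drug doses (not always all listed) in √10 steps, then fixed, stained and imaged at 4× after 5 days.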

[2] = compound: CN1CCC(CC1)OC2=CC(=C(C=C2)NC3=NC=C4C(=N3)N(C(=O)N4C)C5CCCC5)OC [AZ3146] + CC(=O)Nc1cccc(-n2c(=O)n(C3CC3)c(=O)c3c(Nc4ccc(I)cc4F)n(C)c(=O)c(C)c32)c1 [Trametinib] (partner 0.02 µM)
Procedure, shortened: as §1

[3] = compound: CN1CCC(CC1)OC2=CC(=C(C=C2)NC3=NC=C4C(=N3)N(C(=O)N4C)C5CCCC5)OC [AZ3146] + CS(=O)(=O)N1CCN(Cc2cc3nc(-c4cccc5[nH]ncc45)nc(N4CCOCC4)c3s2)CC1 [Pictilisib] (partner 1 µM)
Procedure, shortened: as §1

[4] = compound: CN1CCC(CC1)OC2=CC(=C(C=C2)NC3=NC=C4C(=N3)N(C(=O)N4C)C5CCCC5)OC [AZ3146] + O=C(CCCCCCC(=O)Nc1ccccc1)NO [Vorinostat] (partner 1 µM)
Procedure, shortened: as §1

| Cell Line | relative viability ([1]; first compound 0.5 µM) | relative viability ([1]; first compound 1.581 µM) | relative viability ([1]; first compound 5 µM) | relative viability ([1]; first compound 15.81 µM) | relative viability ([1]; first compound 50 µM) | relative viability ([2]; first compound 0.08 µM) | relative viability ([2]; first compound 0.253 µM) | relative viability ([2]; first compound 0.8 µM) | relative viability ([2]; first compound 2.53 µM) | relative viability ([2]; first compound 8 µM) | relative viability ([3]; first compound 0.08 µM) | relative viability ([3]; first compound 0.253 µM) | relative viability ([3]; first compound 0.8 µM) | relative viability ([3]; first compound 2.53 µM) | relative viability ([3]; first compound 8 µM) | relative viability ([4]; first compound 0.08 µM) | relative viability ([4]; first compound 0.253 µM) | relative viability ([4]; first compound 0.8 µM) | relative viability ([4]; first compound 2.53 µM) | relative viability ([4]; first compound 8 µM) |
| --- | --- | --- | --- | --- | --- | --- | --- | --- | --- | --- | --- | --- | --- | --- | --- | --- | --- | --- | --- | --- |
| 201T | 0.444 | 0.479 | 0.374 | 0.384 | 0.352 | 0.718 | 0.728 | 0.73 | 0.677 | 0.685 | 0.634 | 0.643 | 0.656 | 0.707 | 0.596 | 0.948 | 0.928 | 0.917 | 1.05 | 0.894 |
| A549 | 0.146 | 0.156 | 0.0648 | 0.0756 | 0.103 |  |  |  |  |  | 0.475 | 0.503 | 0.483 | 0.404 | 0.139 |  |  |  |  |  |
| A-427 | 0.406 |  | 0.219 | 0.218 | 0.138 | 0.76 | 0.753 | 0.747 | 0.751 | 0.545 | 0.826 | 0.626 | 0.65 | 0.519 | 0.675 | 0.763 | 0.881 | 0.833 | 0.809 | 0.593 |
| ABC-1 | 0.232 | 0.259 | 0.245 | 0.217 | 0.201 |  |  |  |  |  | 0.566 | 0.866 | 0.687 | 0.878 | 0.723 | 0.618 | 1.02 | 1.53 | 1.2 | 1.16 |
| BEN | 0.25 | 0.261 |  | 0.276 | 0.254 |  | 1 | 1.05 | 0.971 | 1.04 |  | 0.51 | 0.403 | 0.533 | 0.573 |  | 0.54 | 0.608 | 0.558 | 0.588 |
| CAL-12T | 0.702 | 0.549 | 0.532 | 0.554 | 0.42 | 0.46 | 0.304 | 0.321 | 0.313 | 0.314 | 0.334 |  | 0.475 | 0.554 | 0.481 | 0.695 | 0.743 | 0.832 | 0.778 | 0.553 |
| COR-L23 | 0.412 | 0.408 |  | 0.39 | 0.393 | 0.587 | 0.646 | 0.56 | 0.718 | 0.6 | 0.643 | 0.922 | 0.824 | 0.77 | 0.667 | 0.38 | 0.536 | 0.374 | 0.415 | 0.313 |
| COR-L 105 | 0.408 | 0.395 | 0.381 | 0.475 | 0.578 | 0.471 | 0.414 | 0.477 | 0.427 | 0.353 | 0.38 | 0.406 | 0.419 | 0.356 | 0.237 | 0.819 | 0.887 | 0.902 | 0.879 | 0.487 |
| Calu-6 |  |  |  |  |  |  |  |  |  |  | 0.871 | 0.984 | 0.865 | 0.859 | 0.515 |  |  |  |  |  |
| ChaGo-K-1 | 0.488 | 0.49 | 0.438 | 0.475 | 0.422 | 0.826 | 0.895 | 0.836 | 0.892 | 0.957 | 0.746 | 0.668 | 0.645 | 0.824 | 0.596 | 0.711 | 0.691 | 0.703 | 0.718 | 0.521 |
| EBC-1 |  |  |  |  |  |  |  |  |  |  | 0.366 | 0.412 | 0.351 | 0.388 | 0.244 |  |  |  |  |  |
| EKVX | 0.252 | 0.213 | 0.236 | 0.177 | 0.237 | 0.331 | 0.305 | 0.202 | 0.345 | 0.332 | 0.417 | 0.433 | 0.259 | 0.407 | 0.545 | 0.608 | 0.81 | 0.818 | 0.885 | 0.681 |
| EMC-BAC-2 | 0.502 | 0.471 | 0.267 | 0.51 | 0.34 |  |  | 0.89 | 0.921 | 0.844 | 0.524 | 0.56 | 0.564 | 0.607 | 0.597 |  |  | 0.519 | 0.534 | 0.368 |
| EPLC-272H | 0.347 | 0.24 | 0.192 | 0.3 | 0.154 | 0.312 | 0.281 | 0.272 | 0.268 | 0.247 | 0.274 | 0.322 | 0.3 | 0.263 | 0.265 | 0.297 | 0.52 | 0.299 | 0.499 | 0.329 |
| H3255 | 0.331 | 0.381 | 0.36 | 0.312 | 0.365 | 0.649 | 0.57 | 0.555 | 0.614 | 0.544 | 0.514 | 0.49 | 0.466 | 0.507 | 0.518 | 0.737 | 0.746 | 0.856 | 0.887 | 0.897 |
| HARA | 0.455 |  |  | 0.396 | 0.386 | 0.708 | 0.491 | 0.634 | 0.858 | 0.623 | 0.264 | 0.537 | 0.387 | 0.594 | 0.244 | 0.495 | 0.561 | 0.559 | 0.67 | 0.423 |
| HCC-15 | 0.458 |  | 0.376 | 0.384 | 0.344 | 0.421 | 0.346 | 0.357 | 0.414 | 0.348 | 0.721 | 0.773 | 0.765 | 0.737 | 0.728 | 0.779 | 0.796 | 0.885 | 0.887 | 0.687 |
| HCC-44 | 0.253 | 0.222 | 0.134 | 0.124 | 0.137 | 1.07 | 1.02 | 0.996 | 1.04 | 1.15 | 0.543 | 0.528 | 0.815 | 0.618 | 0.472 | 1.07 | 1.07 | 1.05 | 1.12 | 1.13 |
| HCC-78 | 0.87 | 0.731 | 0.946 | 0.588 | 0.528 |  | 0.65 | 0.738 | 0.823 | 0.749 |  | 0.23 | 0.225 | 0.223 | 0.211 |  | 0.496 | 0.435 | 0.354 | 0.471 |
